Values quoted from earlier work as cited in patent US20220265670A1, “COMPOSITION AND USE THEREOF FOR THE TREATMENT OF CUTANEOUS MASTOCYTOSIS” (AC BIOSCIENCE SA, priority 2019, published 2022).

How the values were obtained:
[1] = molecular target: c-Kit (Homo sapiens, UniProt P10721)
[2] = tested on: JM-mutated (exon 11) c-Kit; details: cellular level; read-out: IC50, JM-mutated (exon 11) c-Kit-dependent cell proliferation
[3] = tested on: PDGF-R; details: cellular level; read-out: IC50, PDGF-R-dependent cell proliferation
[4] = tested on: mast degranulation; details: low masitinib concentrations

Sequence of c-Kit (P10721 26-976): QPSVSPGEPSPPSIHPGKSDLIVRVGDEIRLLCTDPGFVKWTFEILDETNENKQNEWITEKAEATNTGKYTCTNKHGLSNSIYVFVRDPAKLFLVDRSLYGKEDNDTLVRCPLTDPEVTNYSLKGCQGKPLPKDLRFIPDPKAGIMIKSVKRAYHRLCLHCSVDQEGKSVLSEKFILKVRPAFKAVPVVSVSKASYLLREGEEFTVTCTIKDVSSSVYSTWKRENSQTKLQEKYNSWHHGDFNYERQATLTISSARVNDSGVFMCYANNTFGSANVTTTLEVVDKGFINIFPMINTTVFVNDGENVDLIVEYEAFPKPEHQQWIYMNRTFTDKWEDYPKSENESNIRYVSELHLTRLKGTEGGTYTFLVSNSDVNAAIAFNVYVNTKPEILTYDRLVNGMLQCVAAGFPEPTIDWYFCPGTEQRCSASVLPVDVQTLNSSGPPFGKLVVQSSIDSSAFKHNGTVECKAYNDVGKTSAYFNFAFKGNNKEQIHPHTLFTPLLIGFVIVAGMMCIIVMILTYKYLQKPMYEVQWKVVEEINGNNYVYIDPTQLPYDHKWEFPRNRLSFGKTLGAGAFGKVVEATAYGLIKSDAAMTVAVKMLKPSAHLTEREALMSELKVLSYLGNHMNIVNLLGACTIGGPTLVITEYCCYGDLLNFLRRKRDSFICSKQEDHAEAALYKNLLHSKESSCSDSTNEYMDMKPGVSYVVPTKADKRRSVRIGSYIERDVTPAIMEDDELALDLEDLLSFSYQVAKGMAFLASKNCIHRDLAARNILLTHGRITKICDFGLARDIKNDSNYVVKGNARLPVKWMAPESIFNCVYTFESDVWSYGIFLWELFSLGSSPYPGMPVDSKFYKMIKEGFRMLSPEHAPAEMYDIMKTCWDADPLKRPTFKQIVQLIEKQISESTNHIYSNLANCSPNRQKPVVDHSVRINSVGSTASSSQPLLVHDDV

SMILES | inhibitory profile relative to masitinib [1] | IC50 [2] [nM] | IC50 [3] [nM] | inhibition of mast degranulation [4]
Cc1ccc(NC(=O)c2ccc(CN3CCNCC3)cc2)cc1Nc1nc(-c2cccnc2)cs1 [AB3280] | essentially the same inhibitory profile as masitinib, even though slightly less potent than masitinib |  |  | 
Cc1ccc(NC(=O)c2ccc(CN3CCN(C)CC3)cc2)cc1Nc1nc(-c2cccnc2)cs1 [Masitinib] |  | 5 | […] | significant inhibition of mast degranulation
